Assays:
[1] = system: MCF-7 human mammary cells; assay: Effect on the proliferation of mammary cells; format: cell-based; set-up: key: Mixed: slight agonist activity at very low concentrations and an inhibitory activity at higher concentrations; conditions: 7 days culture, steroid-free medium, DNA determination; oestradiol at 10^−10M = 100% agonist activity
From the text: PHARMACOLOGICAL TESTS Effect on the proliferation of mammary cells The proliferative activity of the molecules is studied in comparison to that of oestradiol on MCF-7 human mammary cells in culture. In order to reveal an agonist effect of the oestradiol and/or the tested molecules, the cell maintenance culture (rich in growth factors and steroids) is replaced by an impoverished medium, amongst others free of steroids (DMEM supplemented with 5% of steroid-free serum and without phenol red). Cells undergo this severance two days before the start of the test. After 7 days culture in the presence of the products to be studied, the cell proliferation is evaluated by determination of the DNA. In each test, the effect of the oestradiol at 10^−10M (cell growth in the presence of oestradiol less cell growth in the presence of the solvent) determines the 100% agonist activity. The activity of the molecules is evaluated in comparison to this internal control.

[2] = system: ovariectomized female rat; assay: Bone impact study in the ovariectomized female rat at the age of 3 months (tibia BMD, uterus weight, seric cholesterol); format: in vivo; conditions: OVX rat, 4 weeks; for TIBIA BONE BMD %: (product BMD - OVX BMD)x100/(SHAM BMD - OVX BMD); for UTERUS Weight %: increase in % of uterus weight of OVX animals receiving only solvent; for Cholesterol %: seric cholesterol, % relative to OVX animals receiving only solvent
Experimental: Bone impact study of a product in the ovariectomized female rat at the age of 3 months Compounds A, B, C, D, E are tested in order to determine their effect on the bone mass and on the formation and resorption activity in the model of the ovariectomized rat at the age of 3 months. […] The study is carried out with female rats ovariectomized at the age of 3 months. The animals are kept in an air conditioned room (temperature 20° C.±2° C.) and grouped by 4 into boxes. The animals receive, ad libitum, demineralized water and compressed foods (pellets: AO4CR-10 UAR). The 3 month old female rats weighing approximately 250 g are ovariectomized under anaesthesia with Imalgene 1000, at a dose of 100 mg/kg by intraperitoneal route (i.p.) and under a volume of 1 ml/kg. They also receive Nembutal (3 mg/kg i.p. under a volume of 0.3 ml/kg). After lateral incision, cutaneous and muscular planes are sectioned. The exeresis of each ovary is carried out after ligature of the oviduct. The “SHAM” control rats are anaesthetised under the same conditions. After incision of the cutaneous and muscular planes, each ovary is exposed then replaced in situ. The effects of the products are determined in a preventive treatment. They are administered immediately after the ovariectomy. Animals distributed into groups of 8. Group 1: “SHAM” control rats receiving the vehicle or vehicles Group 2: “OVX” control rats receiving the vehicle or vehicles. Groups X: “OVX” rats receiving respectively defined doses of the product or products to be tested. At the end of 4 weeks (duration of the study) the animals are decapitated by guillotine. The serums collected after centrifugation are preserved at −20° C. A lipidic balance will be established from the serous determinations of total cholesterol, of triglycerides and of phospholipids on a 500 μl aliquot of serum. The lowering of the seric cholesterol level is expressed in % relative to the level shown by the ovariectomized animals receiving only the solvent. The uteri are removed. The latter are weighed. The increase in weight is expressed in % of the weight of the uterus of ovariectomized animals receiving only the solvent. The bone mass (BMD or Bone mineral density) is measured by biphotonic dual energy X-ray absorptiometry (DEXA). The measurements are carried out on bone excized and cleaned of all soft tissue. The BMD (Bone mineral density) is measured on the whole bone as well as on the metaphyseal part at the level of the proximal extremity for the left tibia. This zone is defined as being the region which is richest in trabecular bone; and consequently, is the most sensitive to variations in bone volume and bone mineral density. The results are expressed in % according to the formula: Tested product BMD - OVX BMD ×100/SHAM BMD - OVX BMD

Structure (SMILES)	ACTIVITY (proliferative activity on MCF-7 cells) [1]	TIBIA BONE BMD % ([2]; 0.3 mg/kg po) [%]	UTERUS Weight % ([2]; 0.3 mg/kg po) [%]	Cholesterol % ([2]; 0.3 mg/kg po) [%]	TIBIA BONE BMD % ([2]; 1.0 mg/kg po) [%]	UTERUS Weight % ([2]; 1.0 mg/kg po) [%]	Cholesterol % ([2]; 1.0 mg/kg po) [%]	TIBIA BONE BMD % ([2]; 0.1 mg/kg s.c.) [%]	UTERUS Weight % ([2]; 0.1 mg/kg s.c.) [%]	Cholesterol % ([2]; 0.1 mg/kg s.c.) [%]
C[C@]12C[C@H](c3ccc(OCCN4CCCCC4)cc3)[C@@H]3c4ccc(O)c(Cl)c4CC[C@H]3[C@@H]1CCC2=O [Example 1, 4-chloro-3-hydroxy-11beta-[4-[2-(1-piperidinyl)ethoxy]phenyl]-estra-1,3,5 (10)-trien-17-one]	Mixed	57	55	−50	64	55	−48			
CCN(CC)CCOc1ccc([C@H]2C[C@]3(C)[C@@H](O)CC[C@H]3[C@@H]3CCc4c(ccc(O)c4Cl)[C@H]32)cc1 [Example 20, 4-chloro-11beta-[4-[2-(diethylamino)ethoxy]phenyl]-estra-1,3,5 (10)-triene-3,17beta-diol]	Mixed*	69	60	−43	74	50	−40			
C[C@]12C[C@H](c3ccc(OCCN4CCCCC4)cc3)[C@@H]3c4ccc(O)c(Cl)c4CC[C@H]3[C@@H]1CC[C@@H]2O [Example 22, 4-chloro-11β-[4-[2-(1-piperidinyl)ethoxy]phenyl]-estra-1,3,5(10)-triene-3,17beta-diol]	Inactive	63	57	−52						
C[C@]12C[C@H](c3ccc(OCCN4CCCC4)cc3)[C@@H]3c4ccc(O)c(Cl)c4CC[C@H]3[C@@H]1CC[C@@H]2O [Example 23, 4-chloro-11β-[4-[2-(1-pyrrolidinyl)ethoxy]phenyl]-estra-1,3,5(10)-triene-3,17beta-diol]	Mixed	67	64	−53	71	74	−53			
CC1(O)CCC2C3CCc4c(ccc(O)c4Cl)C3C(c3ccc(OCCN4CCCCC4)cc3)CC21C (stereo not drawn) [Example 30, 4-chloro-17alpha-methyl-11β-[4-[2-(1-piperidinyl)ethoxy]phenyl]-estra-1,3,5(10)-triene-3,17beta-diol.]	Mixed	52	68	−51	71	55	−48			
C[C@]12CC[C@@H]3c4ccc(O)cc4CC[C@H]3[C@@H]1CC[C@@H]2O [Oestradiol, 17β oestradiol, reference compound]	Agonist							105	359	−35

Source: patent publication US6399766B2, “4-halogenated steroids, their preparation process and intermediates, their use as medicaments and the pharmaceutical compositions containing them” (Aventis Pharma S.A., priority 1997, dated 2002)
